Source: US10010572B2, “Composition for musculoskeletal pain” (priority 2015, dated 2018)

Test system: chronic musculoskeletal pain
Assay: Randomized, double-blind, placebo-controlled clinical study of topical analgesics (St. Lucia), Subjective Pain Intensity Rating (SPIR)
Text: Chronic musculoskeletal pain is relatively common in all age groups and may be the result of work-related trauma, sports-related injuries, postural events, various traumas and the natural aging process. Pharmaceutical agents including non-steroidal anti-inflammatory drugs acetaminophen, opioids and other drugs are frequently used to treat such patients. Because of the potential adverse effects associated with most of these drugs, one embodiment of the present invention, a topical analgesic, with coconut oil as a base ingredient and other natural oils, was clinically tested to determine its efficacy in the management of chronic musculoskeletal pain.
One hundred ninety six (196) patients were enrolled in the study. The patients were randomized to the 3 groups using the nQuery Advisor version 7.0 software protocol.
After obtaining permission from the Committee for the Protection of Human Subjects attached to the St. Lucia Pain Institute, the Ministry of Health in St. Lucia and the St. Lucia Medical and Dental Association Ethics Committee, a randomized, double-blind, placebo-controlled study was designed and implemented in the Caribbean island of St. Lucia. St. Lucia was chosen as the study site for a number of reasons: that population is relatively opioid-naive; chronic musculoskeletal pain is quite common, and most patients tend to use and in some cases, prefer to use topical analgesics for musculoskeletal pain management instead of oral or other parenteral medications. Moreover, the Principal Investigator (inventor of the present invention) lives in St. Lucia for part of the year. One hundred and ninety-six (196) patients were enrolled in the study and were subsequently randomized to a pre-determined computerized protocol. […] The Diclofenac ointment was dispensed in a label-less tube.
All patients were initially evaluated by the Principal Investigator and another investigator after triage screening by the Study Coordinator. At that screening, the patients were assessed using the inclusionary and exclusionary criteria. […] Patients were recruited via television, radio and newspaper announcements, and interviews announcing the study. […] This study was supported and funded by three St. Lucian Financial Institutions.
Subjective Pain Intensity Rating (SPIR) was determined on each patient using a scale of 0 (no pain) to 10 (the maximum possible pain, e.g. immersion of the hand in boiling water). That raw score was multiplied by 10 to obtain a percentage score. […] After successful enrollment, patients were randomized to one of the 3 groups. Patients were dispensed with 5 ounces of one of the 3 medications and were instructed to apply the medication twice daily for 2 weeks.
All patients were contacted by the Study Coordinator after 2 weeks and pain score (as described above), satisfaction with the drug, satisfaction with the overall study and the presence of adverse effects were determined. Then, 2 weeks later (4 weeks after study commencement), patients were asked to return to the study office (St. Lucia Pain Institute office) for follow-up clinical evaluation and determination of pain score, adverse effects and related data similar to what was obtained at 2 weeks.

For `O=C(O)Cc1ccccc1Nc1c(Cl)cccc1Cl` [Diclofenac], the “Median pain score at 3 months” value (100 point scale, 3 month post-study telephone interview) was 25%, the “Median change in pain from baseline to 3 months (decrease)” value (100 point scale, decrease, not statistically significant among groups) was 30% and the “patients with progressive radicular pain and paresthesiae (major adverse effect)” value (after 5 days, subsided on discontinuation, reappeared on re-introduction, study discontinued in that patient after 8 days) was “One”. The “change in SPIR pain score from baseline to 2 weeks” value (patients with chronic axial musculoskeletal pain, topical twice daily, baseline to 2 weeks, all p<0.0001) was “corresponding decreases in pain scores”, the “change in SPIR pain score from baseline to 4 weeks” value (patients with chronic axial musculoskeletal pain, topical twice daily, baseline to 4 weeks, all p<0.0001) was “corresponding decreases in pain scores” and the “patients who developed superficial skin rashes” value (receded without therapy when the drug was discontinued) was “Four”.
